Here are results for 22 compounds from patent US20250092052A1, “HETEROARYL DERIVATIVE COMPOUNDS, AND USES THEREOF” (VORONOI INC., priority 2023, published 2025).

Molecules are shown by their SMILES.

One experiment has as its target Myt1-KD (Homo sapiens (Human), UniProt Q99640). Put plainly: Thermal Shift Assay, compound binding to Myt1-KD. The note with it: 2 μM protein, 100 μM compound, Tm of compound minus Tm of DMSO. Here is the method: The degree of compound binding to Myt1-KD was tested using a Thermal Shift Assay. Each protein was diluted to a concentration of 2 μM in 50 mM Tris (pH 7.5) with 100 μM of the compound. SYPRO™ Orange dye was added to the solution, and the plate was transferred to a QuantStudio3 Real-Time PCR System (Applied Biosystems by Thermo Fisher Scientific). […] The degree of protein melting in the presence of the compound compared to DMSO was calculated according to the following Equation 1. ΔTm=Tm (Temperature of Example compound)−Tm (Temperature of DMSO) [Equation 1]

A further experiment addresses human PKMYT1 enzyme (Homo sapiens (Human), UniProt Q99640). Nature of the experiment: Inhibitory activity against PKMYT1 kinase (ADP-Glo kinase assay). The note with it: purified human PKMYT1, ATP, CDK1 substrate, 25° C., 1 hour. The experiment is classed as biochemical. Here is the method: To evaluate the inhibitory activity of the compounds synthesized according to the above Examples against PKMYT1 kinase, the Example compounds were reacted with purified human PKMYT1 enzyme and assessed using the following method.
The reaction buffer was used as a composition of 200 mM Tris-HCl pH 7.4, 100 mM MgCl2, 0.5 mg/mL BSA, 0.25 mM DTT, and the reactions of all the tests were carried out on the reaction buffer.
The compound was diluted in 12 steps using a serial dilution method from a 10 mM DMSO stock, and the enzyme activity was measured at a final compound concentration of 10˜0.00005645 μM. During the test, the enzyme activity was confirmed using in vitro ADP-Glo™kinase assay (Promega) after reacting with the proper concentration of PKMYT1 enzyme, purified ATP, and enzyme substrate (CDK1) at 25° C. for 1 hour. At a ratio of 2:2:1, an enzyme-active reaction solution, an ADP-Glo reaction solution, and an enzyme-active detection solution were reacted to measure the inhibition of the enzyme's activity with luminescence. Based on the […] of the enzyme activity of the solvent control that was not treated with the compound, the degree of enzyme activity inhibition was calculated according to the treatment concentration of each compound, and the concentration of each compound that inhibits 50% of enzyme activity was determined as IC50 (nM) value and the value was obtained by using GraphPad Prism 8.3.0 (GraphPad software Inc., San Diego) software.

Sequence of human PKMYT1 enzyme (Q99640 whole entry): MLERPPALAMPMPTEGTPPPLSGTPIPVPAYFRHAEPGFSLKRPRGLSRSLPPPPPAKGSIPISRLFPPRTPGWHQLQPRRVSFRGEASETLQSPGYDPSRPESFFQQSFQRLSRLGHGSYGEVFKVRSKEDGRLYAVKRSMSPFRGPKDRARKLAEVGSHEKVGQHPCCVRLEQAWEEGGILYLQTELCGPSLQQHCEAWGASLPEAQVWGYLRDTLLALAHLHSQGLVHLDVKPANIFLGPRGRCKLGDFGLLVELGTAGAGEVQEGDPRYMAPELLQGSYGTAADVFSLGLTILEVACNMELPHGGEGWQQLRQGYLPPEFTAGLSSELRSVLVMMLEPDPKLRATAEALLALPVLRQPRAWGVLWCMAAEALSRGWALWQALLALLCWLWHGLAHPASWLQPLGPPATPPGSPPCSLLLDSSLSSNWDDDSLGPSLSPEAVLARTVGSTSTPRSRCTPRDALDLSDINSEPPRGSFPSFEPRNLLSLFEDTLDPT
Sequence of Myt1-KD (Q99640 110-359): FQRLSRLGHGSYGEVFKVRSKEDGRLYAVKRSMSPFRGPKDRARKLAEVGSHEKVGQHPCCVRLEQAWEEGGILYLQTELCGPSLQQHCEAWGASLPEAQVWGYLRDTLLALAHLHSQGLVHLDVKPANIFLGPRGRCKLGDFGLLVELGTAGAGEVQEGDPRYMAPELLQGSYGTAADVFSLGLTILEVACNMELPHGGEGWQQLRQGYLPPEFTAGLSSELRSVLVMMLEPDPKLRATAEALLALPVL

Broadly, the ΔTm is the shift of the melting midpoint relative to a reference. Turning to `Cc1ccc(O)c(C)c1-n1c(N)c(C(=O)c2cc3ccccc3[nH]2)c2nccnc21` (atropisomer, axis not shown) [Example 2, (R)-(6-amino-5-(3-hydroxy-2,6-dimethylphenyl)-5H-pyrrolo[2,3-b]pyrazin-7-yl)(1H-indol-2-yl)methanone], at Myt1-KD, the ΔTm at 100 µM was at most 5 °C.

On to `Cc1ccc(O)c(C)c1-n1c(N)c(C(=O)c2nc3ccccc3[nH]2)c2cccnc21` (atropisomer, axis not shown) [Example 4, (R)-(2-amino-1-(3-hydroxy-2,6-dimethylphenyl)-1H-pyrrolo[2,3-b]pyridin-3-yl)(1H-benzo[d]imidazol-2-yl)methanone], for which the ΔTm at 100 µM on Myt1-KD is at most 5 °C.

Broadly, the IC50 is the midpoint of a concentration-inhibition curve. Regarding `Cc1ccc(O)c(C)c1-n1c(N)c(C(=O)c2cc3sccc3[nH]2)c2nccnc21` (atropisomer, axis not shown) [Example 5, (S)-(6-amino-5-(3-hydroxy-2,6-dimethylphenyl)-5H-pyrrolo[2,3-b]pyrazin-7-yl)(4H-thieno[3,2-b]pyrrol-5-yl)methanone], the thermal shift (ΔTm) at 100 µM at Myt1-KD was at least 5 °C. At human PKMYT1 enzyme, this compound showed an IC50 of at most 200 nM.

For `Cc1ccc(O)c(C)c1-n1c(N)c(C(=O)c2cc3sccc3[nH]2)c2nccnc21` (atropisomer, axis not shown) [Example 6, (R)-(6-amino-5-(3-hydroxy-2,6-dimethylphenyl)-5H-pyrrolo[2,3-b]pyrazin-7-yl)(4H-thieno[3,2-b]pyrrol-5-yl)methanone], at Myt1-KD, the “ΔTm (° C.)” value is “B (5 °C ≥ ΔTm (° C.))”.

As to `Cc1ccc(O)c(C)c1-n1c(N)c(C(=O)c2cc3occc3[nH]2)c2nccnc21` (atropisomer, axis not shown) [Example 7, (S)-(6-amino-5-(3-hydroxy-2,6-dimethylphenyl)-5H-pyrrolo[2,3-b]pyrazin-7-yl)(4H-furo[3,2-b]pyrrol-5-yl)methanone], the thermal shift (ΔTm) at 100 µM at Myt1-KD was at least 5 °C. In addition, at human PKMYT1 enzyme, the half-inhibitory concentration (IC50) was at most 200 nM.

On to `Cc1ccc(O)c(C)c1-n1c(N)c(C(=O)c2cc3occc3[nH]2)c2nccnc21` (atropisomer, axis not shown) [Example 8, (R)-(6-amino-5-(3-hydroxy-2,6-dimethylphenyl)-5H-pyrrolo[2,3-b]pyrazin-7-yl)(4H-furo[3,2-b]pyrrol-5-yl)methanone], for which the “ΔTm (° C.)” value on Myt1-KD is “B (5 °C ≥ ΔTm (° C.))”.

In the case of `Cc1ccc(O)c(C)c1-n1c(N)c(C(=O)c2cc3ccccc3[nH]2)c2nc(C)c(C)nc21` (atropisomer, axis not shown) [Example 9, (S)-(6-amino-5-(3-hydroxy-2,6-dimethylphenyl)-2,3-dimethyl-5H-pyrrolo[2,3-b]pyrazin-7-yl)(1H-indol-2-yl)methanone], the thermal shift (ΔTm) at 100 µM on Myt1-KD was at least 5 °C. Moreover, the IC50 on human PKMYT1 enzyme was in the range of 200 to 500 nM.

With `Cc1ccc(O)c(C)c1-n1c(N)c(C(=O)c2cc3ccccc3[nH]2)c2nc(C)c(C)nc21` (atropisomer, axis not shown) [Example 10, (R)-(6-amino-5-(3-hydroxy-2,6-dimethylphenyl)-2,3-dimethyl-5H-pyrrolo[2,3-b]pyrazin-7-yl)(1H-indol-2-yl)methanone], at Myt1-KD, the “ΔTm (° C.)” value was “B (5 °C ≥ ΔTm (° C.))”.

Regarding `Cc1cc2c(C(=O)c3nc4ccccc4[nH]3)c(N)n(-c3c(C)ccc(O)c3C)c2nc1C` (atropisomer, axis not shown) [Example 11, (S)-(2-amino-1-(3-hydroxy-2,6-dimethylphenyl)-5,6-dimethyl-1H-pyrrolo[2,3-b]pyridin-3-yl)(1H-benzo[d]imidazol-2-yl)methanone], the thermal shift (ΔTm) at 100 µM at Myt1-KD is at least 5 °C.

Regarding `Cc1cc2c(C(=O)c3nc4ccccc4[nH]3)c(N)n(-c3c(C)ccc(O)c3C)c2nc1C` (atropisomer, axis not shown) [Example 12, (R)-(2-amino-1-(3-hydroxy-2,6-dimethylphenyl)-5,6-dimethyl-1H-pyrrolo[2,3-b]pyridin-3-yl)(1H-benzo[d]imidazol-2-yl)methanone], the “ΔTm (° C.)” value at Myt1-KD was “B (5 °C ≥ ΔTm (° C.))”.

Regarding `Cc1ccc(O)c(C)c1-n1c(N)c(C(=O)c2cc3cnc(N4CCOCC4)cc3[nH]2)c2nc(C)c(C)nc21` (atropisomer, axis not shown) [Example 15, (S)-(6-amino-5-(3-hydroxy-2,6-dimethylphenyl)-2,3-dimethyl-5H-pyrrolo[2,3-b]pyrazin-7-yl)(6-morpholino-1H-pyrrolo[3,2-c]pyridin-2-yl)methanone], the ΔTm at 100 µM on Myt1-KD is at least 5 °C. The compound also came in with an IC50 at human PKMYT1 enzyme of at most 200 nM.

Regarding `Cc1ccc(O)c(C)c1-n1c(N)c(C(=O)c2cc3cnc(N4CCOCC4)cc3[nH]2)c2nc(C)c(C)nc21` (atropisomer, axis not shown) [Example 16, (R)-(6-amino-5-(3-hydroxy-2,6-dimethylphenyl)-2,3-dimethyl-5H-pyrrolo[2,3-b]pyrazin-7-yl)(6-morpholino-1H-pyrrolo[3,2-c]pyridin-2-yl)methanone], the “ΔTm (° C.)” value at Myt1-KD is “B (5 °C ≥ ΔTm (° C.))”.

Take `Cc1ccc(O)c(C)c1-n1c(N)c(C(=O)c2cc3occc3[nH]2)c2nc(C)c(C)nc21` (atropisomer, axis not shown) [Example 17, (S)-(6-amino-5-(3-hydroxy-2,6-dimethylphenyl)-2,3-dimethyl-5H-pyrrolo[2,3-b]pyrazin-7-yl)(4H-furo[3,2-b]pyrrol-5-yl)methanone]: the thermal shift (ΔTm) at 100 µM at Myt1-KD is at most 5 °C.

Regarding `Cc1ccc(O)c(C)c1-n1c(N)c(C(=O)c2cc3occc3[nH]2)c2nc(C)c(C)nc21` (atropisomer, axis not shown) [Example 18, (R)-(6-amino-5-(3-hydroxy-2,6-dimethylphenyl)-2,3-dimethyl-5H-pyrrolo[2,3-b]pyrazin-7-yl)(4H-furo[3,2-b]pyrrol-5-yl)methanone], the “ΔTm (° C.)” value at Myt1-KD is “A (ΔTm (° C.) ≥ 5° C.)”. Besides, the IC50 against human PKMYT1 enzyme was at most 200 nM.

With `Cc1ccc(O)c(C)c1-n1c(N)c(C(=O)c2cc3cc(CN4CCOCC4)ccc3[nH]2)c2nccnc21` (atropisomer, axis not shown) [Example 19, (S)-(6-amino-5-(3-hydroxy-2,6-dimethylphenyl)-5H-pyrrolo[2,3-b]pyrazin-7-yl)(5-(morpholinomethyl)-1H-indol-2-yl)methanone], at Myt1-KD, the shift in melting temperature (ΔTm) at 100 µM is at least 5 °C. The 50% inhibitory concentration (IC50) at human PKMYT1 enzyme was at most 200 nM.

Regarding `Cc1ccc(O)c(C)c1-n1c(N)c(C(=O)c2cc3cc(CN4CCOCC4)ccc3[nH]2)c2nccnc21` (atropisomer, axis not shown) [Example 20, (R)-(6-amino-5-(3-hydroxy-2,6-dimethylphenyl)-5H-pyrrolo[2,3-b]pyrazin-7-yl)(5-(morpholinomethyl)-1H-indol-2-yl)methanone], the “ΔTm (° C.)” value at Myt1-KD was “B (5 °C ≥ ΔTm (° C.))”.

For the compound `Cc1ccc(O)c(C)c1-n1c(N)c(C(=O)c2cc3cc(N4CCN(C)CC4)ccc3[nH]2)c2nccnc21` (atropisomer, axis not shown) [Example 21, (S)-(6-amino-5-(3-hydroxy-2,6-dimethylphenyl)-5H-pyrrolo[2,3-b]pyrazin-7-yl)(5-(4-methylpiperazin-1-yl)-1H-indol-2-yl)methanone], on Myt1-KD, the shift in melting temperature (ΔTm) at 100 µM was at most 5 °C.

On to `Cc1ccc(O)c(C)c1-n1c(N)c(C(=O)c2cc3ccncc3[nH]2)c2nccnc21` (atropisomer, axis not shown) [Example 24, (S)-(6-amino-5-(3-hydroxy-2,6-dimethylphenyl)-5H-pyrrolo[2,3-b]pyrazin-7-yl)(1H-pyrrolo[2,3-c]pyridin-2-yl)methanone], for which, on Myt1-KD, the thermal shift (ΔTm) at 100 µM was at most 5 °C.

Take `Cc1ccc(O)c(C)c1-n1c(N)c(C(=O)c2cc3ncccc3[nH]2)c2nccnc21` (atropisomer, axis not shown) [Example 26, (S)-(6-amino-5-(3-hydroxy-2,6-dimethylphenyl)-5H-pyrrolo[2,3-b]pyrazin-7-yl)(1H-pyrrolo[3,2-b]pyridin-2-yl)methanone]: the shift in melting temperature (ΔTm) at 100 µM on Myt1-KD was at least 5 °C.

For the compound `Cc1ccc(O)c(C)c1-n1c(N)c(C(=O)c2cc3ncccc3[nH]2)c2nccnc21` (atropisomer, axis not shown) [Example 27, (R)-(6-amino-5-(3-hydroxy-2,6-dimethylphenyl)-5H-pyrrolo[2,3-b]pyrazin-7-yl)(1H-pyrrolo[3,2-b]pyridin-2-yl)methanone], the “ΔTm (° C.)” value at Myt1-KD is “B (5 °C ≥ ΔTm (° C.))”.

On to `Cc1ccc(O)c(C)c1-n1c(N)c(C(=O)c2cc3sccc3[nH]2)c2nc(C)c(C)nc21` [Example 14, (R)-(6-amino-5-(3-hydroxy-2,6-dimethylphenyl)-2,3-dimethyl-5H-pyrrolo[2,3-b]pyrazin-7-yl)(4H-thieno[3,2-b]pyrrol-5-yl)methanone], for which the “ΔTm (° C.)” value on Myt1-KD is “B (5 °C ≥ ΔTm (° C.))”.

In the case of `Cc1ccc(O)c(C)c1-n1c(N)c(C(=O)c2cc3cc(P(C)(C)=O)ccc3[nH]2)c2nccnc21` [Example 40, (6-amino-5-(3-hydroxy-2,6-dimethylphenyl)-5H-pyrrolo[2,3-b]pyrazin-7-yl)(5-(dimethylphosphoryl)-1H-indol-2-yl)methanone], at Myt1-KD, the ΔTm at 100 µM was at least 5 °C.
